From patent US9211310B2, “Use of a Chinese medicine composition in preparing medicaments for treating secondary prevention of myocardial infarction” (TASLY PHARMACEUTICAL GROUP CO., LTD, priority 2010, dated 2015)

Test system: patients after acute myocardial infarction
Assay: Life quality, Seattle Angina Questionnaire (SAQ), same clinical trial
Assay type: in vivo, human
From the text: 3508 patients who were in accordance with the diagnostic standards of AMI for 28 days to 2 years and differentiated as Qi deficiency and blood stagnation syndrome by TCM were studied. 0.5 g Chinese medicine composition prepared by the method of EXAMPLE 1 (Coded as QSYQ) was administrated half an hour after meal, 3 times per day.
There were 19 questions in the Seattle angina questionnaire (SAQ), including 5 parts: physical limitation (PL), anginal stability (AS), anginal frequency (AF), treatment satisfaction (TS) and disease perception (DP). After being given necessary explanation by doctors, the questions were answered independently by patients.
They included the overall survival time, angina pectoris score, TCM symptom score and life quality score, where angina pectoris score, TCM symptom score and life quality score were evaluated at randomization, in 1st, 3rd, 6th, 9th, 12th month after treatment and 18th month after follow-up.
All evaluation results of SAQ were described during the period of observation, and Wilcoxon rank sum test was used for inter-group comparison.
The evaluation results in the SAQ were depicted in different observations, and inter-group comparison was tested by Wilcoxon Rank-sum test.

Structure (SMILES): CC(=O)Oc1ccccc1C(=O)O [Control group, aspirine]
- SAQ Question 1-4: Slightly limited, percent of patients (9 months after treatment, PP): (32.89%)
- SAQ Question 1-5: Mildly limited, number of patients (9 months after treatment, PP): 226
- SAQ Question 1-5: Mildly limited, percent of patients (9 months after treatment, PP): (15.75%)
- SAQ Question 1-5: Moderately limited, number of patients (9 months after treatment, PP): 77
- SAQ Question 1-5: Moderately limited, percent of patients (9 months after treatment, PP): (5.37%)
- SAQ Question 1-5: Not limited, number of patients (9 months after treatment, PP): 705
- SAQ Question 1-5: Not limited, percent of patients (9 months after treatment, PP): (49.13%)
- SAQ Question 1-5: Other reasons, number of patients (9 months after treatment, PP): 10
- SAQ Question 1-5: Other reasons, percent of patients (9 months after treatment, PP): (0.70%)
- SAQ Question 1-5: Severely limited, number of patients (9 months after treatment, PP): 9
- SAQ Question 1-5: Severely limited, percent of patients (9 months after treatment, PP): (0.63%)
- SAQ Question 1-5: Slightly limited, number of patients (9 months after treatment, PP): 408
- SAQ Question 1-5: Slightly limited, percent of patients (9 months after treatment, PP): (28.43%)
- SAQ Question 1-9: Mildly limited, % of cases (9 months after treatment, PP): (19.70%)
- SAQ Question 1-9: Mildly limited, cases (9 months after treatment, PP): 275
- SAQ Question 1-9: Moderately limited, % of cases (9 months after treatment, PP): (20.92%)
- SAQ Question 1-9: Moderately limited, cases (9 months after treatment, PP): 292
- SAQ Question 1-9: Not limited, % of cases (9 months after treatment, PP): (4.23%)
- SAQ Question 1-9: Not limited, cases (9 months after treatment, PP): 59
- SAQ Question 1-9: Other reasons, % of cases (9 months after treatment, PP): (5.80%)
- SAQ Question 1-9: Other reasons, cases (9 months after treatment, PP): 81
- SAQ Question 1-9: Severely limited, % of cases (9 months after treatment, PP): (32.38%)
- SAQ Question 1-9: Severely limited, cases (9 months after treatment, PP): 452
- SAQ Question 1-9: Slightly limited, % of cases (9 months after treatment, PP): (16.98%)
- SAQ Question 1-9: Slightly limited, cases (9 months after treatment, PP): 237
- SAQ 2nd question: 6, % of cases (12 months after treatment, FAS): (0.00%)
- SAQ 2nd question: 6, cases (12 months after treatment, FAS): 0
- SAQ 2nd question: Clearly increased, % of cases (12 months after treatment, FAS): (1.32%)
- SAQ 2nd question: Clearly increased, cases (12 months after treatment, FAS): 23
- SAQ 2nd question: Clearly reduced, % of cases (12 months after treatment, FAS): (27.55%)
- SAQ 2nd question: Clearly reduced, cases (12 months after treatment, FAS): 480
- SAQ 2nd question: Same, % of cases (12 months after treatment, FAS): (37.83%)
- SAQ 2nd question: Same, cases (12 months after treatment, FAS): 659
- SAQ 2nd question: Slightly increased, % of cases (12 months after treatment, FAS): (3.16%)
- SAQ 2nd question: Slightly increased, cases (12 months after treatment, FAS): 55
- SAQ 2nd question: Slightly reduced, % of cases (12 months after treatment, FAS): (30.14%)
- SAQ 2nd question: Slightly reduced, cases (12 months after treatment, FAS): 525
- SAQ 3rd question: 1-2 times per week, % of cases (12 months after treatment, FAS): (30.14%)
- SAQ 3rd question: 1-2 times per week, cases (12 months after treatment, FAS): 525
- SAQ 3rd question: 1-3 times per day, % of cases (12 months after treatment, FAS): (3.16%)
- SAQ 3rd question: 1-3 times per day, cases (12 months after treatment, FAS): 55
- SAQ 3rd question: <1 time per week, % of cases (12 months after treatment, FAS): (27.55%)
- SAQ 3rd question: <1 time per week, cases (12 months after treatment, FAS): 480
- SAQ 3rd question: No onset, % of cases (12 months after treatment, FAS): (0.00%)
- SAQ 3rd question: No onset, cases (12 months after treatment, FAS): 0
- SAQ 3rd question: ≧3 times per week, % of cases (12 months after treatment, FAS): (37.83%)
- SAQ 3rd question: ≧3 times per week, cases (12 months after treatment, FAS): 659
- SAQ 3rd question: ≧4 times per day, % of cases (12 months after treatment, FAS): (1.32%)
- SAQ 3rd question: ≧4 times per day, cases (12 months after treatment, FAS): 23
- SAQ Question 1-3: Mildly limited, number of patients (12 months after treatment, FAS): 54
- SAQ Question 1-3: Mildly limited, percent of patients (12 months after treatment, FAS): (3.10%)
- SAQ Question 1-3: Moderately limited, number of patients (12 months after treatment, FAS): 11
- SAQ Question 1-3: Moderately limited, percent of patients (12 months after treatment, FAS): (0.63%)
- SAQ Question 1-3: Not limited, number of patients (12 months after treatment, FAS): 1471
- SAQ Question 1-3: Not limited, percent of patients (12 months after treatment, FAS): (84.35%)
- SAQ Question 1-3: Other reasons, number of patients (12 months after treatment, FAS): 10
- SAQ Question 1-3: Other reasons, percent of patients (12 months after treatment, FAS): (0.57%)
- SAQ Question 1-3: Severely limited, number of patients (12 months after treatment, FAS): 2
- SAQ Question 1-3: Severely limited, percent of patients (12 months after treatment, FAS): (0.11%)
- SAQ Question 1-3: Slightly limited, number of patients (12 months after treatment, FAS): 196
- SAQ Question 1-3: Slightly limited, percent of patients (12 months after treatment, FAS): (11.24%)
- SAQ Question 1-4: Mildly limited, number of patients (12 months after treatment, FAS): 236
- SAQ Question 1-4: Mildly limited, percent of patients (12 months after treatment, FAS): (13.53%)
- SAQ Question 1-4: Moderately limited, number of patients (12 months after treatment, FAS): 66
- SAQ Question 1-4: Moderately limited, percent of patients (12 months after treatment, FAS): (3.78%)
- SAQ Question 1-4: Not limited, number of patients (12 months after treatment, FAS): 853
- SAQ Question 1-4: Not limited, percent of patients (12 months after treatment, FAS): (48.91%)
- SAQ Question 1-4: Other reasons, number of patients (12 months after treatment, FAS): 11
- SAQ Question 1-4: Other reasons, percent of patients (12 months after treatment, FAS): (0.63%)
- SAQ Question 1-4: Severely limited, number of patients (12 months after treatment, FAS): 13
- SAQ Question 1-4: Severely limited, percent of patients (12 months after treatment, FAS): (0.75%)
- SAQ Question 1-4: Slightly limited, number of patients (12 months after treatment, FAS): 565
- SAQ Question 1-4: Slightly limited, percent of patients (12 months after treatment, FAS): (32.40%)
- SAQ Question 1-5: Mildly limited, number of patients (12 months after treatment, FAS): 260
- SAQ Question 1-5: Mildly limited, percent of patients (12 months after treatment, FAS): (14.92%)
- SAQ Question 1-5: Moderately limited, number of patients (12 months after treatment, FAS): 79
- SAQ Question 1-5: Moderately limited, percent of patients (12 months after treatment, FAS): (4.53%)
